Patent US12331041B2, “GLP-1 receptor agonists and uses thereof” (Pfizer Inc., priority 2018, dated 2025)
Where a name gives a salt, the structure may show the parent alone.

Tests used:
human GLP-1R [1] = target: T1, human GLP-1R (Homo sapiens, UniProt P43220, G168S); test: CHO GLP-1R Clone H6 - Assay 1 (HTRF cAMP agonist assay); format: cell-based; settings: for EC50: CHO Clone H6, high GLP-1R density, cAMP, geometric mean; for Emax: CHO Clone H6, relative to saturating full agonist GLP-1 7-36 (1 μM), arithmetic mean
T1 construct: expressed in transfected cells
Summary of the method: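 CHO Clone H6 cells stably expressing human GLP-1R (G168S) were plated 48 h, then given compound for 30 min at 37° C in HBSS/0.1% BSA/HEPES with 100 μM IBMX and 1% DMSO. cAMP was measured by HTRF against a standard curve.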

human GLP-1R [2] = target: T2, human GLP-1R (Homo sapiens, UniProt P43220, L260F); test: CHO GLP-1R Clone C6 - Assay 2 (HTRF cAMP agonist assay); format: cell-based; settings: for EC50: CHO clone C6, low GLP-1R density, cAMP, geometric mean; for Emax: CHO clone C6, relative to saturating full agonist GLP-1 (1 μM), arithmetic mean
T2 construct: expressed in transfected cells; host or cells: CHO Flp-In T-REx, clonal line C6 (pcDNA5-FRT-TO)
T2 sequence (P43220 24-463 L260F): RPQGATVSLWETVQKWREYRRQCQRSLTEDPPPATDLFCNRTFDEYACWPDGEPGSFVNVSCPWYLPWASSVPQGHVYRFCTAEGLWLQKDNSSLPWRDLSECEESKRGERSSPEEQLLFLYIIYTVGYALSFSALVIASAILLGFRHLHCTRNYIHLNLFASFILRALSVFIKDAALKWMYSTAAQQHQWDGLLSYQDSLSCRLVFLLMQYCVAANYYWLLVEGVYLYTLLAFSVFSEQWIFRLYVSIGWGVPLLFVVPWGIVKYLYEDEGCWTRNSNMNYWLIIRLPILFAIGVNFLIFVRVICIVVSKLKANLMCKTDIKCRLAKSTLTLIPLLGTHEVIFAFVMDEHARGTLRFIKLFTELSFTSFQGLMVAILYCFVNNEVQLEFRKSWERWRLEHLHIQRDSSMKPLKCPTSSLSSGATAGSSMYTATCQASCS

T1 sequence (P43220 24-463 G168S): as the sequence (P43220 24-463 L260F) above, with G145S, F237L counted along it

Row | EC50 (human GLP-1R [1]) | Emax (human GLP-1R [1]) | EC50 (human GLP-1R [2]) | Emax (human GLP-1R [2]) | Compound
1 | 5.3 nM | 90% | 42 nM | 94% | O=C(O)c1ccc2nc(CN3CCC(c4nccnc4OCc4ccc(Cl)cc4F)CC3)n(C[C@@H]3CCO3)c2c1 [Example 19, Ammonium 2-[(4-{3-[(4-chloro-2-fluorobenzyl)oxy]pyrazin-2-yl}piperidin-1-yl)methyl]-1-[(2S)-oxetan-2-ylmethyl]-1H-benzimidazole-6-carboxylate]
2 | 0.34 nM | 80% | 6.1 nM | 91% | CCn1cncc1Cn1c(CN2CCC(c3nccnc3OCc3ccc(Cl)cc3F)CC2)nc2ccc(C(=O)O)cc21 [Example 20, 2-[(4-{3-[(4-chloro-2-fluorobenzyl)oxy]pyrazin-2-yl}piperidin-1-yl)methyl]-1-[(1-ethyl-1H-imidazol-5-yl)methyl]-1H-benzimidazole-6-carboxylic acid, trifluoroacetate salt]
3 | 14 nM | 73% | 370 nM | 91% | O=C(O)c1ccc2nc(CN3CCC(c4nccnc4OCc4ccc(Cl)cc4F)CC3)n(Cc3cocn3)c2c1 [Example 21, 2-[(4-{3-[(4-chloro-2-fluorobenzyl)oxy]pyrazin-2-yl}piperidin-1-yl)methyl]-1-(1,3-oxazol-4-ylmethyl)-1H-benzimidazole-6-carboxylic acid, trifluoroacetate salt]
4 | 2.8 nM | 85% | 23 nM | 82% | O=C(O)c1ccc2nc(CN3CCC(c4nccnc4OCc4ccc(Cl)cc4F)CC3)n(Cc3ncco3)c2c1 [Example 22, 2-[(4-{3-[(4-chloro-2-fluorobenzyl)oxy]pyrazin-2-yl}piperidin-1-yl)methyl]-1-(1,3-oxazol-2-ylmethyl)-1H-benzimidazole-6-carboxylic acid, trifluoroacetate salt]
5 | 41 nM | 89% | 450 nM | 94% | COCCn1c(CN2CCC(c3nccnc3OCc3ccc(Cl)cc3F)CC2)nc2ccc(C(=O)O)cc21 [Example 23, 2-[(4-{3-[(4-chloro-2-fluorobenzyl)oxy]pyrazin-2-yl}piperidin-1-yl)methyl]-1-(2-methoxyethyl)-1H-benzimidazole-6-carboxylic acid, hydrochloride salt]
6 | 2 nM | 76% | 33 nM | 89% | O=C(O)c1ccc2nc(CN3CCC(c4nccnc4OCc4ccc(Cl)cc4F)CC3)n(Cc3cnco3)c2c1 [Example 24, 2-[(4-{3-[(4-chloro-2-fluorobenzyl)oxy]pyrazin-2-yl}piperidin-1-yl)methyl]-1-(1,3-oxazol-5-ylmethyl)-1H-benzimidazole-6-carboxylic acid, trifluoroacetate salt]
7 | 6.3 nM | 80% | 73 nM | 91% | N#Cc1ccc(COc2nccnc2C2CCN(Cc3nc4ccc(C(=O)O)cc4n3Cc3ncco3)CC2)c(F)c1 [Example 25, 2-[(4-{3-[(4-cyano-2-fluorobenzyl)oxy]pyrazin-2-yl}piperidin-1-yl)methyl]-1-(1,3-oxazol-2-ylmethyl)-1H-benzimidazole-6-carboxylic acid, trifluoroacetate salt]
8 | 5.1 nM | 86% | 38 nM | 86% | Cn1cncc1Cn1c(CN2CCC(c3nccnc3OCc3ccc(Cl)cc3F)CC2)nc2ccc(C(=O)O)cc21 [Example 26, 2-[(4-{3-[(4-chloro-2-fluorobenzyl)oxy]pyrazin-2-yl}piperidin-1-yl)methyl]-1-[(1-methyl-1H-imidazol-5-yl)methyl]-1H-benzimidazole-6-carboxylic acid, trifluoroacetate salt]
9 | 140 nM | 79% | 2800 nM | 110% | Cn1c(CN2CCC(c3nccnc3OCc3ccc(Cl)cc3F)CC2)nc2ncc(C(=O)O)cc21 [Example 30, 2-[(4-{3-[(4-chloro-2-fluorobenzyl)oxy]pyrazin-2-yl}piperidin-1-yl)methyl]-1-methyl-1H-imidazo[4,5-b]pyridine-6-carboxylic acid, hydrochloride salt]

Second part, the compound before the results:

Row | Compound | EC50 (human GLP-1R [1]) | Emax (human GLP-1R [1]) | EC50 (human GLP-1R [2]) | Emax (human GLP-1R [2])
10 | CCn1nncc1Cn1c(CN2CCC(c3cccnc3OCc3ccc(C#N)cc3F)CC2)nc2ccc(C(=O)O)cc21 [Example 17, 2-[(4-{2-[(4-cyano-2-fluorobenzyl)oxy]pyridin-3-yl}piperidin-1-yl)methyl]-1-[(1-ethyl-1H-1,2,3-triazol-5-yl)methyl]-1H-benzimidazole-6-carboxylic acid, trifluoroacetate salt] | 6 nM | 86% | 150 nM | 91%
11 | CCn1cncc1Cn1c(CN2CCC(c3nccnc3OCc3ccc(C#N)cc3F)CC2)nc2ccc(C(=O)O)cc21 [Example 27, 2-[(4-{3-[(4-cyano-2-fluorobenzyl)oxy]pyrazin-2-yl}piperidin-l-yl)methyl]-1-[(1-ethyl-1H-imidazol-5-yl)methyl]-1H-benzimidazole-6-carboxylic acid, trifluoroacetate salt] | 0.84 nM | 86% | 16 nM | 85%
12 | O=C(O)c1ccc2nc(CN3CCN(c4cccnc4OCc4ccc(Cl)cc4F)CC3)n(C[C@@H]3CCO3)c2c1 [Example 33, Ammonium 2-[(4-{2-[(4-chloro-2-fluorobenzyl)oxy]pyridin-3-yl}piperazin-1-yl)methyl]-1-[(2S)-oxetan-2-ylmethyl]-1H-benzimidazole-6-carboxylate] | 3.1 nM | 93% | 84 nM | 110%
13 | Cn1cncc1Cn1c(C2CC23CCN(c2cccc(OCc4ccc(C#N)cc4F)n2)CC3)nc2ccc(C(=O)O)cc21 (stereo not drawn) [Example 37, 2-(6-{6-[(4-cyano-2-fluorobenzyl)oxy]pyridin-2-yl}-6-azaspiro[2.5]oct-1-yl)-1-[(1-methyl-1H-imidazol-5-yl)methyl]-1H-benzimidazole-6-carboxylic acid, trifluoroacetate salt] | 9.3 nM | 88% | 190 nM | 92%
14 | CCn1cncc1Cn1c(C2CC23CCN(c2nc(OCc4ccc(Cl)cc4F)ncc2F)CC3)nc2ccc(C(=O)O)cc21 (stereo not drawn) [Example 39, 2-(6-{2-[(4-chloro-2-fluorobenzyl)oxy]-5-fluoropyrimidin-4-yl}-6-azaspiro[2.5]oct-1-yl)-1-[(1-ethyl-1H-imidazol-5-yl)methyl]-1H-benzimidazole-6-carboxylic acid, trifluoroacetate salt, from P7] | 1.6 nM | 90% | 29 nM | 95%
15 | Cn1c(C2CC23CCN(c2nc(OCc4ccc(Cl)cc4F)ncc2F)CC3)nc2ccc(C(=O)O)nc21 (stereo not drawn) [Example 40, 2-(6-{2-[(4-chloro-2-fluorobenzyl)oxy]-5-fluoropyrimidin-4-yl}-6-azaspiro[2.5]oct-1-yl)-3-methyl-3H-imidazo[4,5-b]pyridine-5-carboxylic acid, trifluoroacetate salt, from P7] | 150 nM | 77% | 2000 nM | 100%
